Laboratory results taken from publication PMC12040169 (PLOS Biology, 2025).

Test: in vitro
Conditions: human, hela cells, % viability

Structure (SMILES) | viability at 28.5 h, 10 µM [%]
COc1ccccc1CN(C(=O)Nc1ccccc1Cl)C1CC1 [CBK298332] | 97.2
COc1cccc(NS(=O)(=O)c2cc(CC(=O)O)ccc2OC)c1 [CBK298333] | 93.9
NC(=O)c1ccccc1NC(=O)Cc1ccc2c(c1)CCCC2 [CBK298334] | 88.9
COc1cc(C(C)NC(=O)c2ccc(=O)[nH]n2)ccc1OC1CCCC1 (stereo not shown) [CBK298335] | 89.7
Cc1nccn1CC(C)CNc1ccc(C(=O)c2ccccc2)cc1[N+](=O)[O-] (stereo not shown) [CBK298336] | 80.4
O=C(NC1CCCN(c2ncccn2)C1)c1ccc(-c2ccc(F)cc2)s1 (stereo not shown) [CBK298337] | 88.5
Cc1[nH]c2c(C(=O)Nc3cccc(CN4CCOC4=O)c3)cccc2c1C [CBK298338] | 90.3
O=C(Cc1csc(-c2c(Cl)cccc2Cl)n1)NC[C@H]1CC[C@H](C(=O)O)CC1 [CBK299767] | 85.7
CC(C)(CC(=O)O)CC(=O)Nc1ccc2c(c1)ncn2CCc1ccccc1 [CBK299768] | 91.7
CC1Oc2ccc(S(=O)(=O)Nc3ccc(CCC(=O)O)cc3)cc2NC1=O (stereo not shown) [CBK299769] | 92.3
Cc1cc2c(cc1S(=O)(=O)NCCOc1cccc(C(=O)O)c1)OCC(=O)N2 [CBK299770] | 88.3
CCOc1ccc(-c2cc(C(=O)Nc3cccc(C(=O)O)c3)no2)cc1 [CBK299776] | 93.9
O=C(O)c1cccc(NC(=O)c2ccc(COc3ccc(-c4ccccc4)cc3)o2)c1 [CBK299778] | 105
O=C(O)c1cccc(OCCNS(=O)(=O)c2ccc(N3CCCC3=O)cc2)c1 [CBK299779] | 97.3
CS(=O)(=O)N1CCCC(C(=O)Nc2cccc3cccnc23)C1 (stereo not shown) [CBK299783] | 90.8
O=C(O)C1CC=CCC1C(=O)N1CCN(C(=O)c2ccco2)CC1 (stereo not shown) [CBK299784] | 94.1
O=C(CSc1n[nH]c(=O)n1C1CCCCC1)NCc1ccc(N2CCCC2=O)cc1 [CBK299785] | 105
CCOc1ccc2nc(NS(=O)(=O)c3cc(C(=O)O)c(Cl)cc3Cl)sc2c1 [CBK299789] | 109
CCCCOc1ccc(-c2nonc2NC(=O)COc2ccccc2Cl)cc1 [CBK299792] | 117
O=C(O)c1cccc(S(=O)(=O)Nc2nc3ccc(Cl)cc3s2)c1 [CBK299793] | 103
CC(=O)c1cccc(NC(=O)Nc2ccc(S(=O)(=O)Nc3cc(C)on3)cc2)c1 [CBK299794] | 111
CC(C)(CC(=O)O)CC(=O)Nc1ccc(-c2nc3ccccc3s2)cc1 [CBK299796] | 104

Structure (SMILES) | viability at 28.5 h, 10 µM [%]
CC(=O)c1ccc(NC(=O)CSc2ncccc2C(=O)O)cc1 [CBK299798] | 94.4
O=C(O)CCCNS(=O)(=O)c1ccc(C2CCCCC2)cc1 [CBK299800] | 95.2
CC(C)CC(=O)Nc1ccc2nc(SCC(=O)O)sc2c1 [CBK299801] | 96.4
COc1cccc(-c2csc(NS(=O)(=O)c3ccc(C)c(C(=O)O)c3)n2)c1 [CBK299803] | 99.1
O=C(O)c1cc(S(=O)(=O)NCCCN2CCOCC2)ccc1Cl [CBK299804] | 96.8
O=C(O)c1cc(/C=C/c2ccc(Br)cc2)nc2ccccc12 [CBK299805] | 94.3
CC(=O)N(c1ccc2oc3c(c2c1)CCCC3)S(=O)(=O)c1ccc(C(=O)O)cc1 [CBK299808] | 92.5
O=C(O)c1cccc(N2C(=O)c3cccc4c(C(=O)c5ccccc5)ccc(c34)C2=O)c1 [CBK299809] | 74.2
CCOc1ccc(S(=O)(=O)Nc2ccc(O)c(C(=O)O)c2)cc1 [CBK299810] | 93.5
Cc1ccc2cc(S(=O)(=O)Nc3cccc(C(=O)O)c3)ccc2c1 [CBK299812] | 101
COc1cc(-c2nnc(CSCc3n[nH]c(=O)[nH]3)o2)cc(OC)c1OC [CBK299814] | 99.5
Cc1nc(-c2ccc(NC(=O)C3CC=CCC3C(=O)O)cc2)cs1 (stereo not shown) [CBK299815] | 99.4
Cc1ccc2cc(S(=O)(=O)NCCCC(=O)O)ccc2c1 [CBK299818] | 95.8
Cc1cc(C(C)(C)C)cc(S(=O)(=O)Nc2ccc(C(=O)O)c(O)c2)c1C [CBK299820] | 88.3
O=C(Cc1ccc(F)cc1)Nc1cccc(-c2noc(-c3ccc(F)cc3)n2)c1 [CBK299821] | 89
CC(C)COc1ccc(-c2nonc2NC(=O)c2cccs2)cc1 [CBK299822] | 103
O=C(O)c1ccc(NC(=O)c2cccc(NC(=O)c3cccc4ccccc34)c2)cc1 [CBK299823] | 101
CC(C)c1ccc(NC(=O)CSc2n[nH]c(=O)n2-c2ccccc2)cc1 [CBK299826] | 89.3
O=C(O)c1ccc(NS(=O)(=O)c2ccc3c(c2)C(=O)c2ccccc2C3=O)cc1 [CBK299828] | 88.3
CC(C)COc1ccc(-c2nonc2NC(=O)c2ccccc2F)cc1 [CBK299831] | 86
O=C(CSc1ncccc1C(=O)O)Nc1nnc(Cc2ccccc2)s1 [CBK299835] | 97.1
O=C(O)c1cccc(N2C(=O)c3cccc4c(Cl)ccc(c34)C2=O)c1 [CBK299836] | 90.3

Structure (SMILES) | viability at 28.5 h, 10 µM [%]
CCOc1ccc(S(=O)(=O)Nc2ccc(C(=O)O)c(O)c2)cc1 [CBK299837] | 94.2
CCN1C(=O)c2cccc3c(S(=O)(=O)Nc4cccc(C(=O)O)c4)ccc1c23 [CBK299838] | 97.5
Cn1c(=O)n(C)c2cc(S(=O)(=O)Nc3ccc(Cl)c(C(=O)O)c3)ccc21 [CBK299841] | 90.8
N#Cc1c(NC(=O)CSc2nnnn2-c2ccc(C(=O)O)cc2)sc2c1CCCC2 [CBK299876] | 87.6
CC(C)c1ccc(-c2csc(Nc3cccc(C(=O)O)c3)n2)cc1 [CBK299880] | 104
Cc1ccc(CN2CC(C(=O)N3CCC(C(=O)O)CC3)CC2=O)cc1 (stereo not shown) [CBK300205] | 91.8
COc1ccc(CSc2nnc(SCc3ccc(C(=O)O)cc3)s2)cc1 [CBK300477] | 104
Clc1ccc(Cn2ncc3c(NCc4cccnc4)ncnc32)cc1 [CBK300478] | 94.9
Cc1ccc(OCC(=O)N2CCN(C(=O)c3ccncc3)CC2)cc1 [CBK300480] | 92.3
Cc1ccc2oc(-c3cccc(NC(=O)c4ccccc4C(=O)O)c3)nc2c1 [CBK300481] | 109
N=C(N)NC1=NC(=O)C(CC(=O)Nc2ccc(Oc3ccccc3)cc2)S1 (stereo not shown) [CBK300482] | 105
Cc1ccc(OCCSc2nc3ccccc3n2CC(=O)O)c(C(C)C)c1 [CBK300483] | 105
O=C(Nc1ncc(Cc2ccc(F)cc2)s1)c1csc2c1CCCC2 [CBK300489] | 90.2
CCCCOc1ccc(C(=O)N/C(=C/c2ccco2)C(=O)Nc2cccc(C(=O)O)c2)cc1 [CBK300491] | 92.4
CC(=O)NS(=O)(=O)c1ccc(NC(=O)/C=C/c2cccc([N+](=O)[O-])c2)cc1 [CBK300492] | 88.6
Cc1nc(NC(=O)c2c(F)cccc2F)sc1C [CBK300495] | 76.1
COc1cc(CNc2nnn[nH]2)cc(Br)c1OCc1ccc(Cl)cc1 [CBK300496] | 87.2
O=C(O)c1cc(-c2ccc(-c3ccc(Cl)c(C(F)(F)F)c3)o2)nc2ccc(F)cc12 [CBK300501] | 111
O=C(CCc1ccc(-c2ccc(F)cc2)o1)Nc1ccc(C(=O)O)cc1 [CBK300502] | 99
O=C(O)CCSCC(=O)c1ccc(NS(=O)(=O)c2ccccc2)cc1 [CBK300504] | 97.5
CCOc1cccc2cc(-c3cc(=O)oc4cc(C)c(O)cc34)oc12 [CBK300517] | 95.9
COc1ccc(S(=O)(=O)Nc2ccc3oc(-c4ccccc4F)cc(=O)c3c2)cc1 [CBK300518] | 90.1

Structure (SMILES) | viability at 28.5 h, 10 µM [%]
O=C(CSc1ncnc2[nH]ncc12)c1ccc(-c2ccccc2)cc1 [CBK300519] | 88.4
Cc1ccc(C(=O)CSc2nc(O)c3nc[nH]c3n2)cc1 [CBK300520] | 119
Cc1c(C(=O)O)sc2nc(SC/C=C/c3ccccc3)nc(N)c12 [CBK300523] | 83.4
COCCNC(=O)c1nnn(-c2ccc(Br)cc2)c1C [CBK300524] | 93.3
COc1ccc(OCc2nc(C)cc(=O)n2CC(=O)NC(C)C)cc1 [CBK300525] | 99
Cc1c(C(=O)Nc2ccc(C(=O)O)cc2)nnn1-c1ccc(Cl)cc1 [CBK300532] | 84.4
Cc1ccccc1OCC(=O)N1CC(=O)Nc2ccccc21 [CBK300535] | 94
O=C(c1ccccc1)c1ccc2n1CCC2C(=O)N1CCN(c2ccccc2)CC1 (stereo not shown) [CBK300536] | 115
O=c1[nH]c(SCc2n[nH]c(=S)n2-c2ccccc2)nc2sc3c(c12)CCCC3 [CBK300538] | 118
CCCCc1ccc(S(=O)(=O)c2cnc(SCC(=O)Nc3ccc(Cl)cc3)[nH]c2=O)cc1 [CBK300539] | 106
O=c1[nH]nc2cc(SCc3ccc(Cl)cc3)ncn12 [CBK300540] | 107
O=C(NCc1cccnc1)c1ccc(CSc2ccccc2)cc1 [CBK300544] | 101
Cc1cc(=O)oc2cc(OCC(=O)Nc3ccc(S(=O)(=O)O)cc3)ccc12 [CBK301204N] | 89.6
Nc1nc(SCc2nnc(S)n2-c2ccccc2)nc2sc3c(c12)CCC3 [CBK301216K] | 83.1
CC(C)[C@H]1N=C2C=C(C(C)(C)C)ON2[C@H]2[C@H](O)[C@H](O)C[C@H]21 [CBK303234] | 90.1
CC(C)(C)C1=CC2=NC3(CCCCC3)[C@@H]3C[C@@H](O)[C@@H](O)[C@@H]3N2O1 [CBK303235] | 111
Cn1c2c(c(=O)n(C)c1=O)[C@H]1[C@H](O)[C@H](O)C[C@H]1[C@@H](C(O)c1ccccc1)N2 (stereo partly shown) [CBK303236] | 92.8
Cn1c(/N=C(\C=N\c2cc(=O)n(C)c(=O)n2C)c2ccccc2)cc(=O)n(C)c1=O [CBK303237] | 87.3
CC(C)(C)OC(=O)N1CC2(C1)N=C1C=C(C(C)(C)C)ON1[C@H]1[C@H](O)[C@H](O)C[C@H]12 [CBK303240] | 97.6
